# Results: patent US9604899B2, “Bipolar trans carotenoid salts and their uses” (Diffusion Pharmaceuticals LLC, priority 2002, dated 2017)
# Assays:
# [1] = solubility in sodium carbonate-deionized water solution (pH 8.0); format: physicochemical; conditions: pH 8, aqueous buffer, thermodynamic from solid, pH 8.0, room temperature, read-out: solubility in water adjusted to pH 8.0 with very dilute sodium carbonate
# Procedure: A BTCS such as TSC dissolves in very dilute sodium carbonate solutions. A dilute, eg 0.00001-0.001M, solution of sodium carbonate can be added, dropwise, to deionized water until the pH is 8.0 (the pH of deionized water is usually 5-6). This only takes a few drops of the very dilute sodium carbonate per, say, 50 mls of deionized water. This sodium carbonate-deionized water solution is capable of completely dissolving a large amount of TSC (around 10 mg/ml)—which is remarkable considering the hydrophobicity of the carotenoid portion of the BTCS.
# [2] = dissolution in normal (isotonic) saline and other salt solutions; format: physicochemical; conditions: up to several milligrams per ml added
# Procedure: Large volumes (as much as 3 times the estimated blood loss) of isotonic saline (also called normal saline) are infused as a treatment for hemorrhagic shock. The isotonic saline contains 9 g NaCl per liter of water so as not to disturb the ionic strength of the plasma once it is infused into the body. […] About 50% of the TSC dissolves in normal saline no matter how much TSC is added (up to several milligrams per ml), which means that undissolved particles of TSC are still present. […] The actual composition of the stock solution can be verified using UV-visible spectroscopy. This stock solution can be added to normal saline and the TSC remains dissolved.
# This method can be used to dissolve a BTCS in other types of sodium chloride solutions, as well as in solutions of other salts such as KCl, Na2SO4, lactate, etc. Several, eg 1-3 mg/ml, can be put into solution in this manner.
# [3] = solubility in common organic solvents; format: physicochemical; conditions: chloroform, DMSO, pyridine, methanol, acetone, glacial acetic acid
# Excerpt: Attempts were made to dissolve TSC in order to obtain a ^1H NMR spectrum. […] The TSC produced from this project was characterized by IR, UV, HPLC and elemental analyses. […] UV and HPLC were consistent with authentic TSC.^7 Elemental analyses gave satisfactory values.
# [4] = diffusivity of oxygen through aqueous solutions
# hemorrhaged rats [5] = test: hemorrhagic shock in rats (Roy et al); conditions: rat, in vivo
# Procedure: In Roy et al, Shock 10, 213-7. (1998), hemorrhaged rats (55% blood volume) were given a bolus of trans sodium crocetinate (TSC) after the hemorrhage ended, followed by saline after another 30 minutes. […] Whole-body oxygen consumption increased in the TSC group, reaching 75% of normal resting value after about 15 minutes.
# [6] = TSC by inhalation, drug in blood stream; format: in vivo, rat; conditions: rats
# Procedure: TSC has been given to rats via an inhalation route. Ten rats were given TSC directly into the lungs. This was done by inserting a tube into the trachea, and nebulizing 0.2 ml of TSC solution (TSC dissolved in dilute sodium carbonate solution) with about 3 to 6 mls of air. For all dosages studied (0.5-2 mg/kg), about 20% of the drug was present in the blood stream within one minute after it was given.
# [7] = oral administration of TSC (gavage), drug in blood stream; format: in vivo, rat; conditions: two rats, 15 to 30 minutes after being given
# Excerpt: TSC has been shown, in rats, to be absorbed into the blood stream when administered orally (via a gavage technique). […] The maximum amount absorbed orally actually occurred earlier than that time.
# [8] = simulated TSC molecule surrounded with water molecules; cited from earlier work
# hemorrhaged rats [9] = conditions: cited from earlier work
# [10] = test system: rat model of acute hypoxia; conditions: 10% oxygen air mixture, TSC given after 10 minutes; cited from earlier work
# [11] = stability (aqueous solution, dry form); conditions: tap, distilled, deionized water
# [12] = background statement; cited from earlier work
Compound,solubility [1] [µg/mL],fraction of added TSC that dissolves in normal saline [2],solubility in most common organic solvents [3],increase of diffusivity of oxygen through aqueous solutions [4],oxygen consumption of rats undergoing hemorrhagic shock (hemorrhaged rats [5]),"period the drug was present in the blood stream ([6]; inhalation, 0.8-1.6 mg/kg)","fraction of the drug present in the blood stream ([6]; nebulized into trachea, 0.5-2 mg/kg, within one minute)",fraction of the dosage given present in the blood stream [7] [%],computational increase in diffusivity [8] [%],"whole-body oxygen consumption (hemorrhaged rats [9]; hemorrhaged rats, after about 15 minutes)","survival (hemorrhaged rats [9]; rats hemorrhaged 55% blood volume, TSC bolus after hemorrhage, saline after 30 minutes)",survival and hemodynamic stability [10],solubility in deionized water versus normal water (solubility in water),solubility (solubility in water; water) [µg/mL],stability of solutions in water [11],solubility in water [12]
"CC(/C=C/C=C(\C)C(=O)[O-])=C\C=C\C=C(C)\C=C\C=C(/C)C(=O)[O-].[Na+].[Na+] [TSC, Trans Sodium Crocetinate]",~10000,About 50%,practically insoluble,about 30%,increase the oxygen consumption,at least two hours,about 20%,1 to 2,~30,75 % of normal resting value,All of the TSC-treated animals lived,all survived with good hemodynamic stability for over two hours,more soluble in deionized water,~10000,only stable if the pH is adjusted so as to make the solution basic,–
CC(/C=C/C=C(\C)C(=O)O)=C\C=C\C=C(C)\C=C\C=C(/C)C(=O)O [crocetin],–,–,–,–,–,–,–,–,–,–,–,–,–,–,–,only sparingly soluble in water
CC(/C=C/C=C(\C)C(=O)O[C@@H]1O[C@H](CO[C@@H]2O[C@H](CO)[C@@H](O)[C@H](O)[C@H]2O)[C@@H](O)[C@H](O)[C@H]1O)=C\C=C\C=C(C)\C=C\C=C(/C)C(=O)O[C@@H]1O[C@H](CO[C@@H]2O[C@H](CO)[C@@H](O)[C@H](O)[C@H]2O)[C@@H](O)[C@H](O)[C@H]1O [crocin],–,–,–,–,–,–,–,–,–,–,–,–,–,–,–,significant solubility in water
